Columns and labels:
porcine model of SBS [1] = assay: Small intestine resection and final organ weights, porcine SBS model; assay type: in vivo, piglets; details: at sacrifice after 4 days; median ± IQR
Experimental: (§1) Newborn, crossbred (Hampshire×Landrace×Duroc×Yorkshire) piglets (n=10), were weighed, placed in cages in a heated room (˜30° C.), and were fed with a commonly available sow milk replacement formula. After an overnight fast, piglets underwent surgery for the placement of jugular and intragastric catheters for postoperative parenteral and enteral nutrition, respectively, and small bowel resection surgery. Following a 4-cm midline incision an 80% mid-jejunoileal resection was performed. The total amount of bowel resection was approximated using the following equation: total intestinal length=280 cm×body weight^0.60. A 20% remnant (˜60 cm total per kg BW) remained and was represented equally between proximal jejunum and ileum, representing ˜30 cm each remnant segment per kg bodyweight. ˜45 cm of jejunum distal to the ligament of Treitz and ˜45 cm of ileum proximal to the ileocecal junction were measured using sterile silk ribbon placed along the antimesentric border of the gently stretched small intestine. Intestine not included in the measurement was removed via cauterization. Bowel continuity was restored using an end-to-end jejunoileal anastomosis.
(§2) The control group received a standard DHA ethyl ester preparation of substantially pure DHA ethyl ester (>90% DHA ethyl ester).
(§3) Samples of intestinal tissue resected at the time of surgery and remnants at sacrifice were collected from proximal jejunum (proximal to anastomosis) and distal ileum (distal to anastomosis) and morphological measurements of the crypts and villi were measured. Only intact villi and crypts were measured. All measurements were made by the same, single, blinded observer.
(§4) The primary outcome measure was a change in plasma DHA level in the SBS-treated group versus control group. Given the small number of piglets per group, appropriate small group statistical methods were used to evaluate differences in outcome variables. Variable summary statistics are expressed as median±interquartile range (IQR). The Wilcoxon Rank-Sum test, which is appropriate to compare two non-normal distributions as is common in small sample size, was used to compare outcome measures between groups; while the Wilcoxon signed-rank test, which is appropriate for repeated measurements within the same animal, was used to compare paired, before and after surgery outcome measures within groups. Differences in growth measurements and fatty acid levels over time between groups were evaluated using generalized linear mixed models (GLMM) to account for repeated measures and non-Gaussian, non-normal data.

[2] = Longitudinal plasma fatty acid levels, porcine SBS model; assay type: in vivo, piglets
From the text: as §2
Blood samples for systemic fatty acid profiles were obtained on the day of surgery and then twice daily until sacrifice on fourth postoperative day. Plasma fatty acids were isolated and measured.
as §4

porcine model of SBS [3] = assay: Small bowel morphometry (villus height, crypt depth), porcine SBS model; assay type: in vivo, piglets; details: within group
Experimental: as §2, §3, §4

porcine model of SBS [4] = assay: Growth (weight) in neonatal porcine model of SBS; assay type: in vivo, piglets; details: median ± IQR; for Change in weight: final minus starting weight, 4 days at 1 g/kg*day
Experimental: A study was conducted to evaluate, in an established porcine model of SBS, the systemic absorption and intestinal adaptation capacity of an ethyl ester form of DHA in combination with a surface active agent composition effective to spontaneously form micelles with said fatty acids upon contact with an aqueous media. In certain embodiments, the self-micellizing compositions may further contain at least one additional omega-3 fatty acid (either in the triglyceride, ester, or free fatty acid form), for example EPA or other known omega-3 fatty acids as disclosed herein. In certain embodiments, the self-micellizing compositions may further contain an anti-oxidant, such as tocopherol. In certain embodiments, the self-micellizing compositions may further contain an omega-6 fatty acid (either in the triglyceride, ester, or free fatty acid form), for example arachidonic acid (ARA), linoleic acid (LA), gamma-linolenic acid (GLA) or the omega-6 isomer of DPA, also known as osbond acid. This composition allows for micelle formation independent of the presence of bile salts as compared to a standard […] of DHA without a surface active agent (Control).
as §1
Continuous enteral feeding with a commonly available sow milk replacer formula, also lacking DHA, was slowly introduced 24 h after intestinal resection at 3 mL/kg*h via the intragastric catheter. The volume of enteral feedings was then advanced every 24 h by 1 ml/kg*h until a final enteral volume of 5 mL/kg*h was achieved on postoperative day 3 which represents approximately 50% of full enteral feeding volume and nutrient intake.
as §2
Piglets were weighed every other day. In addition to calculating a change in weight by subtracting the starting weight at the time of randomization from the final weight, percent weight change and growth velocity (g/kg*d) were also calculated. Percent weight change was calculated by: [((final weight-starting weight)/starting weight)×100]. Growth velocity was calculated by: [(weight change/starting weight)/4 days of treatment].
The primary outcome measure was a change in plasma DHA level in the SBS-treated group versus control group. […] Variable summary statistics are expressed as median±interquartile range (IQR). […]

patients with PSC = details: 12-month open-label pilot study, n=23; cited from earlier work
[5] = in humans; cited from earlier work
COX-1 = COX-1 (Homo sapiens, UniProt P23219); details: enzyme involved in synthesis of TXA2; cited from earlier work
Sequence of COX-1 (P23219 24-599): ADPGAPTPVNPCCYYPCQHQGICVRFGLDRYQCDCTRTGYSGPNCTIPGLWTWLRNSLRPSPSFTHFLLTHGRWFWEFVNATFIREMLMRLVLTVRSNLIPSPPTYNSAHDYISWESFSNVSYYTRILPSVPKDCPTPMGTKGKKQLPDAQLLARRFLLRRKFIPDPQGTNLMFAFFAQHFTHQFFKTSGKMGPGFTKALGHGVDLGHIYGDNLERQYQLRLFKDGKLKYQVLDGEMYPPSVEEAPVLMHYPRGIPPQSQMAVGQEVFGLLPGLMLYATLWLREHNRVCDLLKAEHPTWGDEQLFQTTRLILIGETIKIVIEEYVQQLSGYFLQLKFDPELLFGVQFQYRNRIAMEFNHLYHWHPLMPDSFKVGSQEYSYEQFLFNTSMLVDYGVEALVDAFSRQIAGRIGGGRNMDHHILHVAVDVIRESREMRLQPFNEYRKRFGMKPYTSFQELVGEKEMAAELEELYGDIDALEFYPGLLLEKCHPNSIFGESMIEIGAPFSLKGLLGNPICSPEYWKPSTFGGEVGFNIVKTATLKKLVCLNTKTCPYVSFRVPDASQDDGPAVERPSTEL

[6] = Time 0, at the time of surgery (baseline)
[7] = within 12 hours, after the first enteral dose of DHA
[8] = end of experiment vs time of surgery

## CC/C=C\C/C=C\C/C=C\C/C=C\C/C=C\C/C=C\CCC(=O)OCC [Control, DHA ethyl ester]
Porcine model of SBS [1]
  Brain (final weight): 14.0 ± 1.6 g/kg
  Ileum (final length): 17.5 ± 4.7 cm/kg
  Ileum (final weight): 5.3 ± 1.2 g/kg
  Jejunum (final length): 21.2 ± 6.7 cm/kg
  Jejunum (final weight): 5.2 ± 1.4 g/kg
  Liver (final weight): 36.3 ± 2.5 g/kg
[2]; [6]
  Initial plasma ARA level: 11.8±0.5 mol %
  Initial plasma DHA level: 2.3±0.4 mol %
  Initial plasma EPA level: 0.3±0.1 mol %
  Initial plasma LA level: 16.6±1.8 mol %
[2]; third postoperative day
  Plasma ARA level: 8.7±0.8 mol %
[2]; [7]
  Plasma DHA level: 2.5 mol %
  Plasma EPA level: 0.2±0.005 mol %
Porcine model of SBS [3]; [8]
  Villus height of distal ileum, Final vs Day 0: reduced, but not significantly different
  Villus height of proximal jejunum, Final vs Day 0: not significantly different
Porcine model of SBS [3]
  Crypt depth of distal ileum, final vs baseline: increased from baseline
Porcine model of SBS [3]; p<0.05
  Crypt depth of proximal jejunum, final vs baseline: increased
Porcine model of SBS [4]; 4 days of treatment
  Growth velocity: 13.5 ± 30.1 g/kg/day
  Weight change: 5.4 ± 12.1%
Porcine model of SBS [4]; after 4 days at 1 g/kg*day via intragastric catheter
  Weight at finish: 2594 ± 170 g
Porcine model of SBS [4]
  Change in weight: 132 ± 278 g
Porcine model of SBS [4]; listed as control
  Change in weight: 132 ± 278 g

## CC/C=C\C/C=C\C/C=C\C/C=C\C/C=C\C/C=C\CCC(=O)O [DHA, (4Z,7Z,10Z,13Z,16Z,19Z)-docosa-4,7,10,13,16,19-hexaenoic acid]
Patients with PSC
  Alkaline phosphatase: significant decline
  Serum DHA levels: increase

## CC/C=C\C/C=C\C/C=C\CCCCCCCC(=O)O [ALA, alpha-linolenic acid]
[5]
  Conversion to DHA: 2-5%
  Conversion to EPA: 5-10%

## CC/C=C\C/C=C\C/C=C\C/C=C\C/C=C\CCCCCC(=O)O [Omega-3 DPA, all-cis-7,10,13,16,19-docosapentaenoic acid]
COX-1
  COX-1 activity: potent inhibitor

— patent US10898458B2, “Self-micellizing fatty acids and fatty acid ester compositions and their use in the treatment of disease states” (Micelle BioPharma, Inc., priority 2013, dated 2021)
